Data from article PMC9168271, “Discovery of Novel Tetrahydro-β-carboline Containing Aminopeptidase N Inhibitors as Cancer Chemosensitizers” (Frontiers in Oncology, 2022).

What was measured:
[1] = target: Aminopeptidase N (APN, CD13) (Homo sapiens, UniProt P15144); assay: APN enzyme inhibitory assay, supernatant of K562-CD13 cells as enzyme source, L-leucine-p-nitro anilide substrate; details: for inhibition at 30 µM: read-out: Inhibitory rate (%);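 on all read-outs here: substrate L-leucine-p-nitro anilide used at 1.6 mM, with enzyme from sonicated APN-overexpressing K562 cell lysate supernatant, run in 96-well plates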
Aminopeptidase N (APN, CD13), sequence (P15144 whole entry): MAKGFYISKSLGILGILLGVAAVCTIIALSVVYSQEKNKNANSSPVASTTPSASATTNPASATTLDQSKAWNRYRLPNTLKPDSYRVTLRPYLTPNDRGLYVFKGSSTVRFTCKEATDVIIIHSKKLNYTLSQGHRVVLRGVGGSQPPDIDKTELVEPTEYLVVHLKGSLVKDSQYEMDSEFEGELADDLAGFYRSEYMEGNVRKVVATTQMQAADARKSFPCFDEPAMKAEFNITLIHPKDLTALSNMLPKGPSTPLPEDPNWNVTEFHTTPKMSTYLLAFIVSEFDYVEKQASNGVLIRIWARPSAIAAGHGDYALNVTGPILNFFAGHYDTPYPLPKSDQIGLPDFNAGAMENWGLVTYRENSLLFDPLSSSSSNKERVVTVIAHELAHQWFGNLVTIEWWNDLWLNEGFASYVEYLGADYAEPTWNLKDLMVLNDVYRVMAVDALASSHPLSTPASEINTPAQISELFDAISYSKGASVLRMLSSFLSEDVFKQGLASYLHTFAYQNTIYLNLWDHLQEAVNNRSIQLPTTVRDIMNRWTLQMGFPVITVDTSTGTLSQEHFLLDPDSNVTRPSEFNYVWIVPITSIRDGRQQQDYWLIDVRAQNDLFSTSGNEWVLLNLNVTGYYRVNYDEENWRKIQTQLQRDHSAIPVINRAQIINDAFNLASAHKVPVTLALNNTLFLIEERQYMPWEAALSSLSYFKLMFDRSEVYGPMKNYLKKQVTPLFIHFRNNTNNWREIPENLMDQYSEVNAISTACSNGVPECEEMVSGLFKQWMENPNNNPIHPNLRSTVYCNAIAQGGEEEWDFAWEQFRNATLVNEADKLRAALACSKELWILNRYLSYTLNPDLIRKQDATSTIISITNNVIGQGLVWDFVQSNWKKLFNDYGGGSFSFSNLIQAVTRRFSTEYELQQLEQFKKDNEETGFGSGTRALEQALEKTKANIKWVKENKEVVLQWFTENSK
Protocol: In the enzyme inhibitory assay, K562-CD13 monoclonal cells were used as APN enzyme source as described in our previous work ([27]).
K562 cells with overexpression of APN were added into PBS for ultrasonic crushing, centrifuged for 10 minutes, and supernatant was taken as enzyme source and added into 96-well plate. Different concentrations of compounds were added subsequently, and 1.6 mM L-leucine-p-nitro anilide was used as substrate. After 30 minutes of reaction, the APN enzyme activity was measured at 405 nm absorbance. The inhibition rate of APN activity was analyzed by the formula (Od control OD tested)/Od control 100%.

[2] = tested on: luciferase-expressing MDA-MB-231 cells; assay: In vivo anticancer study, xenograft model in female nude mice; details: 20 mg/kg/d APN inhibitor + 10 mg/kg/3 days PTX; 3 weeks; n = 4
Protocol: To evaluate the in vivo anticancer potency of the combination of PTX-APN inhibitor, cancer xenograft model was established by inoculation of luciferase- expressing MDA-MB-231 cells to female nude mice. About 1×10^7 MDA-MB-231 cells were injected subcutaneously into the right fat pad of the fourth mammary gland of the mice. […] Significant tumor size variations were observed among different groups ( Figures 5A, B ). […] Moreover, no clear signs of toxicity in liver and spleen were detected in the sacrificed mice.
Female Nude mice aged 3 weeks were purchased from Hunan SJA Experimental Animal Company and raised under SPF aseptic conditions. About 1×10^7 luciferase overexpressing MDA-MB-231 cells were injected subcutaneously into the right fat pad of the fourth mammary gland of each mouse. […] PBS group animals received PBS via intraperitoneal injection, while 10 mg/kg/3 days of PTX was administered to animals in the PTX group. […] After 3 weeks of administration, each mouse was intraperitoneally injected with 200uL of fluorescein substrate (d-fluorescein potassium salt, 150mg/kg), and then anesthetized with isoflurane. In vivo fluorescence imaging system (IVIS Spectrum, PerkinElmer) and SlideBook4.0 software were utilized for the result analysis. After the imaging analysis, mice were sacrificed and dissected for the detection of tumor size and calculation of liver/spleen indexes. All animal experiments were approved by the Animal Care and Use Committee of Weifang Medical University.

MDA-MB-231 cells [3] = assay: Spheroid-formation assay; type: cell-based, human; details: 1 nM PTX + 1 µM APN inhibitor, 7 days
Protocol: (§1) Cancer stem cells (CSCs) play an important role in the resistance of cancer cells to chemotherapeutic drugs. APN has been reported to be a therapeutic target in human cancer stem cells ([18]). Therefore, the CSC based test was performed in the present study. Colony-formation assay and spheroid-formation assay are two commonly used methods to assess the capacity of CSCs in vitro. In the spheroid-formation assay, MDA-MB-231 and MDA-MB-468 cells were dispersed into single cells, inoculated into low-adherence 6-well plates, and added with stem cell sphere medium. The stem cell spheres became visible after 5-6 days incubation. […] It is known that mRNA levels of the stem cell biomarkers OCT-4, SOX-2 and Nanog are associated with the characteristics of TNBC stem cells ([30]). Therefore, RT-PCR was performed on the TNBC cells to detect the mRNA levels of these markers.
(§2) MDA-MB-231 cells and MDA-MB-468 cells in logarithmic growth phase were collected, stem cell sphere culture medium without serum (containing 50X B-27Supplement,100X N-2 Supplement,20 μg/L epidermal growth factor (EGF), 20µg/L insulin-like growth factor (IGF-1), 10 μg/L fibroblast growth factor (b-FGF), 20X Knock Out SR, 2mM L-Glutamine, 5mg/L Heparin sodium, 1X PENICILLIN-STREPTOMYCIN and DMEM: F12 (1:1) medium was added for the re-suspension and fully blown into single-cell suspension. The cells were diluted to 5,000/2 mL, with stem cell sphere culture medium, and cultured in a 37°C, 5% CO2 cell incubator. The number of stem cell spheres were observed every day. […]

MDA-MB-468 cells [4] = assay: Spheroid-formation assay; type: cell-based, human; details: 1 nM PTX + 1 µM APN inhibitor, 7 days
Protocol: as §1, §2

[5] = tested on: CD13 (APN) expression in MDA-MB-468 cells; assay: Flow cytometry of APN expression; type: cell-based, human; details: 48 h
Protocol: (§3) The cells were seeded in 6-well plates (4 × 10^5 cells/well) and treated with tested compounds for 48 h. Then, cells were collected into 1.5 mL EP tubes, washed twice with PBS, and centrifuged at 2500rpm for 5minutes. Cells were resuspended with 100μlof PBS, then 2μL/tube of APN antibody was added, followed by incubation in dark for 30 minutes at 4°C. Then the cells were subjected to flow cytometry (FACSAria II, Becton-Dickinson) for the expression of APN.

[6] = tested on: CD13 (APN) expression in MDA-MB-231 cells; assay: Flow cytometry of APN expression; type: cell-based, human; details: 48 h
Protocol: as §3

MDA-MB-231 cells [7] = assay: MTT antiproliferative assay, chemotherapeutic drug with APN inhibitor; type: cell-based, human; details: with PTX, EPB, CTX, CBP, 48 h
Text: (§4) The combination of APN inhibitor and paclitaxel (PTX), has been employed for the treatment of human breast cancer. In the current study, molecules with good APN inhibitory potency (D12, D14 and D16) were selected and used in combination with several chemotherapeutic drugs, such as PTX, EPB, cyclophosphamide (CTX) and carboplatin (CBP) to investigate its inhibitory effect on breast cancer. Human triple negative breast cancer cell (TNBC) lines MDA-MB-231 and MDA-MB-468 were utilized in the in vitro studies. […] It was also observed that the synthesized molecules enhanced chemotherapeutic drug sensitivity in a dose dependent manner. Therefore, further analysis was performed to examine the synergistic effects of the derived APN inhibitors and chemotherapeutic drugs.
(§5) Then, 10μL of MTT solution (5 mg/mL) were added to each well. After incubation for 4h, the medium was carefully removed, and 100 μL DMSO was added to each well and fully dissolved in vibration for 10min. The optical density (OD) at 490 nm and 630 nm were measured with a microplate Spectrophotometer (M5, MD). IC50 values were obtained from at least 3 independent experiments.

MDA-MB-468 cells [8] = assay: as above; type: cell-based, human; details: with PTX, EPB, CTX, CBP, 48 h
Text: as §4, §5

MDA-MB-231 cells [9] = assay: Apoptosis analysis (Annexin V-FITC/PI); type: cell-based, human; details: 48 h
Protocol: (§6) Moreover, APN inhibitor-induced chemo-sensitization had been frequently reported for PTX ([17], [29]). Therefore, the combination of PTX-APN inhibitor was selected in the subsequent studies.
(§7) The cells were seeded in 6-well plates (3 × 10^5 cells/well) and treated with various compounds for 48 h. Then, cells were collected and washed twice with cold PBS. Annexin V-FITC staining solution was then added to the cells, and cells were incubated at 2-8°C for 15 minutes under dark conditions. Then, PI staining solution was added by gentle mix at 2-8°C. After 5 minutes of incubation under dark conditions, cells were tested with flow cytometry immediately.

MDA-MB-468 cells [10] = assay: Apoptosis analysis (Annexin V-FITC/PI); type: cell-based, human; details: 48 h
Protocol: as §6, §7

MDA-MB-231 cells [11] = assay: Colony-formation assay; type: cell-based, human; details: 0.2 nM PTX + 1 µM APN inhibitor, 14 days
Protocol: as §1
(§8) 3000 cells were suspended in 2 mL medium, and seeded into the wells of six-well plate. After 12 hours of incubation, cells were treated with various compounds. Until each colony had more than 50 cells, this experiment terminated. Cells were washed twice with PBS and fixed with methanol for 10minutes. Then cells were stained with 1% crystal violet for 5minutes. Finally, colonies were washed and pictures were taken under a microscope (IX81, Olympus).

MDA-MB-468 cells [12] = assay: Colony-formation assay; type: cell-based, human; details: 0.2 nM PTX + 1 µM APN inhibitor, 14 days
Protocol: as §1, §8

| SMILES | inhibition at 30 µM [1] [%] | anticancer effect of PTX (tumor weight) compared with single PTX administration group [2] | inhibitory rate (tumor), in combination with PTX [2] [%] | number of tumor spheres formed, compared with control and PTX alone (MDA-MB-231 cells [3]) | number of tumor spheres formed, compared with control and PTX alone (MDA-MB-468 cells [4]) | APN expression, combination with PTX compared with paclitaxel alone [5] | APN expression, combination with PTX compared with paclitaxel alone [6] | IC50 [1] [µM] | antiproliferative activity of chemotherapeutic drugs in combination with APN inhibitor (MDA-MB-231 cells [7]) | antiproliferative activity of chemotherapeutic drugs in combination with APN inhibitor (MDA-MB-468 cells [8]) | apoptotic rate in combination with PTX, compared with Bestatin (MDA-MB-231 cells [9]) | apoptotic rate in combination with PTX, compared with Bestatin (MDA-MB-468 cells [10]) | colony formation, compared with control and single PTX (MDA-MB-231 cells [11]) | colony formation, compared with control and single PTX (MDA-MB-468 cells [12]) |
| --- | --- | --- | --- | --- | --- | --- | --- | --- | --- | --- | --- | --- | --- | --- |
| CC(C)C[C@H](NC(=O)[C@@H](O)[C@H](N)Cc1ccccc1)C(=O)O [Bestatin, reference compound] | 53.9 ± 0.77 | improved the anticancer effect of PTX | 10.63 | significant decrease in the number of tumor spheres | significant decrease in the number of tumor spheres | decreased APN expression | decreased APN expression |  |  |  |  |  |  |  |
| O=C(Cn1c2c(c3ccccc31)CCN(C(=O)c1cccc(F)c1)C2)NO [Compound D12, 2-(2-(3-fluorobenzoyl)-1,2,3,4-tetrahydro-9H-pyrido[3,4-b]indol-9-yl)-N-hydroxyacetamide] | 74.9 ± 4.35 | improved the anticancer effect of PTX | 54.02 | significant decrease in the number of tumor spheres | significant decrease in the number of tumor spheres | decreased APN expression | decreased APN expression | 8.92 ± 0.38 | synergistically improved the antiproliferative activity of chemotherapeutic drugs | synergistically improved the antiproliferative activity of chemotherapeutic drugs | higher apoptotic rate | higher apoptotic rate | decreased the tumor sphere and colony formation abilities | decreased the tumor sphere and colony formation abilities |
| O=C(Cn1c2c(c3ccccc31)CCN(C(=O)c1ccccc1F)C2)NO [Compound D14, 2-(2-(2-fluorobenzoyl)-1,2,3,4-tetrahydro-9H-pyrido[3,4-b]indol-9-yl)-N-hydroxyacetamide] | 74.3 ± 6.16 | improved the anticancer effect of PTX | 31.32 | significant decrease in the number of tumor spheres | significant decrease in the number of tumor spheres | decreased APN expression | decreased APN expression | 7.74 ± 0.33 | synergistically improved the antiproliferative activity of chemotherapeutic drugs | synergistically improved the antiproliferative activity of chemotherapeutic drugs | higher apoptotic rate | higher apoptotic rate | decreased the tumor sphere and colony formation abilities | decreased the tumor sphere and colony formation abilities |
| Cc1ccccc1C(=O)N1CCc2c(n(CC(=O)NO)c3ccccc23)C1 [Compound D16, N-hydroxy-2-(2-(2-methylbenzoyl)-1,2,3,4-tetrahydro-9H-pyrido[3,4-b]indol-9-yl)acetamide] | 74.5 ± 4.66 | improved the anticancer effect of PTX | 14.15 | significant decrease in the number of tumor spheres | significant decrease in the number of tumor spheres | decreased APN expression | decreased APN expression | 7.9 ± 0.27 | synergistically improved the antiproliferative activity of chemotherapeutic drugs | synergistically improved the antiproliferative activity of chemotherapeutic drugs | higher apoptotic rate | higher apoptotic rate | decreased the tumor sphere and colony formation abilities | decreased the tumor sphere and colony formation abilities |
